Test results: PubChem BioAssay (NCI)
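A five-concentration, 48-hour dose response in 96-well plates underlies each endpoint, interpolated linearly between surrounding concentrations. The concentration for full growth arrest is given as TGI.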 The source made the active and inactive calls. Cut-off read from the data, not from the text of the source: active = GI50 below about 0.43 µM; inactive = the rest.

The molecules below were run on P388 leukemia (assay: NCI tumour cell line growth inhibition, 48 h).

Row | SMILES | TGI [µM]
1 | S=P(N1CC1)(N1CC1)N1CC1 | 328
2 | NCCCNCCCCNC(=O)C(O)NC(=O)CCCCCCN=C(N)N (centres undefined) | 511

The molecules below were run on P388/ADR leukemia (assay: NCI tumour cell line growth inhibition, 48 h).

Row | SMILES | TGI [µM]
3 | S=P(N1CC1)(N1CC1)N1CC1 | 351
4 | NCCCNCCCCNC(=O)C(O)NC(=O)CCCCCCN=C(N)N (centres undefined) | 750

What follows are molecules tested on RXF-631 renal (assay: NCI tumour cell line growth inhibition, 48 h).

Row | SMILES | TGI [µM] | outcome
5 | COc1ccc(OCC(=O)O)c(C(=O)CCC(=O)O)c1 | > 100 | –
6 | COC(C)(C)C/C=C/C(C)=C/C=C/C(C)=C\C=C\C(C)=C\C=C\C=C(C)\C=C\C=C(C)\C=C\C=C(C)\C=C\CC(C)(C)OC | – | inactive
7 | O=c1c2cc(Cl)ccc2sc2cccc(Cl)c12 | > 100 | –
8 | CCN(CC)c1ccc(N=Nc2ccc(-c3nc4ccc[n+](C)c4o3)cc2)cc1 | > 100 | –
9 | Cc1cc(C)cc(NC(N)=S)c1 | > 100 | –
10 | CN(C)CC/[N+]([O-])=C(/c1ccccc1)C12CC3CC(CC(C3)C1)C2 | 32.8 | –
11 | CN1C(=O)C2C(C1=O)C1(O)c3ccccc3C2(N)c2ccccc21 (centres undefined) | > 100 | –
12 | Cc1cc(Cl)ccc1NC(=O)CC1SC(=Nc2ccccc2Cl)NC1=O (centres undefined) | > 100 | –
13 | O=C(O)CCc1nn2c(nc1=O)sc1ccc3ccccc3c12 | > 100 | –
14 | Cn1cc2ccccc2c1-c1nc(F)nc(OCC(=O)[C@H]2CCC3[C@@H]4CCC5=CC(=O)CC[C@]5(C)C4[C@@H](O)C[C@@]32C)n1 (some centres undefined) | 6.82 | –
15 | O=Cc1c(O)c(C(=O)Nc2ccc3[nH]c(=O)[nH]c3c2)cc2ccccc12 | > 100 | –
16 | Cc1cccc(C)c1NC(=O)C(=O)Nn1c(NN)nc2ccccc2c1=O | > 100 | –
17 | Cc1cc2c(C)nn(Cc3ccc(Cl)cc3)c2c(C#N)c1C | > 100 | –
18 | COc1cc2c(cc1OC)/C(=C\c1ccccc1N)C(=O)OC2 | 23.5 | –
19 | CN(C)c1ccc(/C=c2\sc3nc4ccccc4n3c2=O)cc1 | > 100 | –
20 | CC1OC(n2cc(F)c(=O)[nH]c2=O)C=CC1=O (centres undefined) | > 100 | –
21 | Cc1cc(C)c(-n2c(-c3ccc(Br)cc3)cs/c2=N\N=C2C=C(C(C)(C)C)C(=O)C(C(C)(C)C)=C2)c(C)c1 | > 100 | –
22 | CC(=O)OCC1OC(n2c(-c3ccc(C)cc3)cc(-c3ccccc3)c(C#N)c2=O)C(OC(C)=O)C(OC(C)=O)C1OC(C)=O (centres undefined) | > 100 | –

What follows are molecules tested on SN12K1 renal (assay: NCI tumour cell line growth inhibition, 48 h).

Row | SMILES | TGI [µM]
23 | S=P(N1CC1)(N1CC1)N1CC1 | 373
24 | NCCCNCCCCNC(=O)C(O)NC(=O)CCCCCCN=C(N)N (centres undefined) | 750
